Measurements published in US20010016560A1, “Herbicidal compositions” (priority 1998, published 2001).

Legend:
[1] = system: SACOF RB68 5089; assay: Field test Brazil, crop effect, heavy clay soil (Example 1); assay type: in vivo, ratoon sugarcane
Procedure: (§1) [0042] The following test was conducted in Brazil: Tebuthiuron (used as the commercial formulation “Combine™”, a suspension concentrate containing […] active ingredient) and 5-cyclopropyl-4-(2-methylsulfonyl-4-trifluoromethyl)benzoylisoxazole (isoxaflutole, hereafter referred to as Compound A), which was formulated as wettable granules, were sprayed alone and in tank mix combination (spray rate 300 l/ha) to a plot 5 meters by 3 meters pre-emergence of the weeds and ratoon sugarcane (varieties RB72 454 and […]). The soil was a heavy clay soil containing 1.8% organic matter, […] (pH 5.3) and had been sown on the same day as application with the weed species (the application was made to the ratoon cane about 90 days after cutting and before re-growth). Visual assessment was made 95 days after treatment in comparison with an untreated control plot. Two replicates were performed.

[2] = system: SACOF RB72 454; assay: as above; assay type: in vivo, ratoon sugarcane
Procedure: as §1

[3] = system: AMASP; assay: Field test Brazil, pre-emergence, heavy clay soil (Example 1); assay type: in vivo; settings: 95 days after treatment vs untreated plot, g/ha: Cpd A 150, Tebuthiuron 500, mix 500+150
Procedure: as §1

[4] = system: ECHCG; assay: as above; assay type: in vivo; settings: 95 days after treatment vs untreated plot, g/ha: Cpd A 150, Tebuthiuron 500, mix 500+150
Procedure: as §1

[5] = system: ELEIN; assay: as above; assay type: in vivo; settings: 95 days after treatment vs untreated plot, g/ha: Cpd A 150, Tebuthiuron 500, mix 500+150
Procedure: as §1

[6] = system: BRAPL; assay: as above; assay type: in vivo; settings: 95 days after treatment vs untreated plot, g/ha: Cpd A 150, Tebuthiuron 500, mix 500+150
Procedure: as §1

[7] = system: PANMA; assay: as above; assay type: in vivo; settings: 95 days after treatment vs untreated plot, g/ha: Cpd A 150, Tebuthiuron 500, mix 500+150
Procedure: as §1

[8] = system: DIGHO; assay: as above; assay type: in vivo; settings: 95 days after treatment vs untreated plot, g/ha: Cpd A 150, Tebuthiuron 500, mix 500+150
Procedure: as §1

[9] = system: SACOF RB68 5089; assay: Field test Brazil, crop effect, light sandy soil (Example 2); assay type: in vivo, ratoon sugarcane
Procedure: as §1
(§2) [0044] The following test was conducted in Brazil following the same procedure as described in Example 1 above but where the soil type was light sandy containing 1.8% organic matter, 82% sand and 13% clay (pH 5.3). Again, two replicates were performed.

[10] = system: SACOF RB72 454; assay: as above; assay type: in vivo, ratoon sugarcane
Procedure: as §1, §2

[11] = system: AMASP; assay: Field test Brazil, pre-emergence, light sandy soil (Example 2); assay type: in vivo; settings: 95 days after treatment vs untreated plot, g/ha: Cpd A 150, Tebuthiuron 500, mix 500+150
Procedure: as §1, §2

[12] = system: ECHCG; assay: as above; assay type: in vivo; settings: 95 days after treatment vs untreated plot, g/ha: Cpd A 150, Tebuthiuron 500, mix 500+150
Procedure: as §1, §2

[13] = system: ELEIN; assay: as above; assay type: in vivo; settings: 95 days after treatment vs untreated plot, g/ha: Cpd A 150, Tebuthiuron 500, mix 500+150
Procedure: as §1, §2

[14] = system: BRAPL; assay: as above; assay type: in vivo; settings: 95 days after treatment vs untreated plot, g/ha: Cpd A 150, Tebuthiuron 500, mix 500+150
Procedure: as §1, §2

[15] = system: SIDRH; assay: as above; assay type: in vivo; settings: 95 days after treatment vs untreated plot, g/ha: Cpd A 150, Tebuthiuron 500, mix 500+150
Procedure: as §1, §2

[16] = system: DIGHO; assay: as above; assay type: in vivo; settings: 95 days after treatment vs untreated plot, g/ha: Cpd A 150, Tebuthiuron 500, mix 500+150
Procedure: as §1, §2

[17] = pre-emergence, 95 days after treatment vs untreated plot, heavy clay soil, g/ha: Cpd A 150, Tebuthiuron 500, mix 500+150
[18] = pre-emergence, 95 days after treatment vs untreated plot, light sandy soil, g/ha: Cpd A 150, Tebuthiuron 500, mix 500+150

| Structure (SMILES) | Visual assessment SACOF RB68 5089 (crop) [1, 17] | Visual assessment SACOF RB72 454 (crop) [2, 17] | Visual assessment AMASP [3] | Visual assessment ECHCG [4] | Visual assessment ELEIN [5] | Visual assessment BRAPL [6] | Visual assessment PANMA [7] | Visual assessment DIGHO [8] | Visual assessment SACOF RB68 5089 (crop) [9, 18] | Visual assessment SACOF RB72 454 (crop) [10, 18] | Visual assessment AMASP [11] | Visual assessment ECHCG [12] | Visual assessment ELEIN [13] | Visual assessment BRAPL [14] | Visual assessment SIDRH [15] | Visual assessment DIGHO [16] | Visual assessment SACOF RB68 5089 (crop) ([1]; in vivo) | Visual assessment SACOF RB72 454 (crop) ([2]; in vivo) | Visual assessment SACOF RB68 5089 (crop) ([9]; in vivo) | Visual assessment SACOF RB72 454 (crop) ([10]; in vivo) |
| --- | --- | --- | --- | --- | --- | --- | --- | --- | --- | --- | --- | --- | --- | --- | --- | --- | --- | --- | --- | --- |
| CNC(=O)N(C)c1nnc(C(C)(C)C)s1 [Tebuthiuron] | 0 | 0 | 75 | 10 | 20 | 10 | 5 | 10 | 0 | 0 | 70 | 15 | 20 | 20 | 60 | 20 |  |  |  |  |
| CS(=O)(=O)c1cc(C(F)(F)F)ccc1C(=O)c1cnoc1C1CC1 [Cpd A, 5-cyclopropyl-4-(2-methylsulfonyl-4-trifluoromethyl)benzoylisoxazole] |  |  | 80 | 50 | 85 | 70 | 85 | 75 |  |  | 27.5 | 20 | 30 | 15 | 10 | 20 | 0 | 0 | 0 | 0 |
